This is an account of results in publication PMC10522709, “Rational design and characterization of cell-selective antimicrobial peptides based on a bioactive peptide from Crocodylus siamensis hemoglobin” (Scientific Reports, 2023).

Where two headings read alike, the source gives them in different places. Ends that are not written are not given here. Bounds are passed on as bounds.

Common to all, as to assay type: cell-based
The test system of data set [1] is Bacillus subtilis (ATCC 6633). The following applies: ATCC 6633, 24 h. The protocol: (§1) Broth microdilution assays were performed as reported previously. In short, the bacteria including Escherichia coli (ATCC 25922), Klebsiella pneumoniae (ATCC 27736), Pseudomonas aeruginosa (ATCC 27853), Bacillus subtilis (ATCC 6633), Staphylococcus aureus (ATCC 25923) and Staphylococcus epidermidis (ATCC 12228) were grown in Nutrient broth to mid-log phase at 37 °C. The bacterial suspension (50 μL, concentration of 1 × 10^6 CFU/mL) was loaded into a well with serially diluted peptide (50 µL, final concentrations ranging from 0–200 μg/mL) in a sterile 96-well plate and incubated at 37 °C for 18 h. The optical density (OD) at 600 nm was measured using a microplate reader (ALLSHENG, Zhejiang, China) in order to determine the growth of the bacteria. The inhibition was estimated using the formula; %inhibition=OD600ofcontrol-OD600ofsample/OD600ofcontrol-OD600ofblank×100 where minimal inhibitory concentration (MIC) is defined as the minimum concentration that inhibited 90% of bacterial growth.
(§2) In order to evaluate the minimal bactericidal concentration (MBC)—the lowest concentration that terminates the growth of bacteria on an agar plate—of the peptide, co-culture medium (100 μL) from each well after the microdilution assay was spread on a nutrient agar plate. Plates were maintained at 37 °C for 24 h and the number of colonies formed was counted to evaluate antimicrobial activity.

The subject of data set [2] is Escherichia coli (ATCC 25922). The conditions noted are these: ATCC 25922, 24 h. The protocol:
as §1, §2

The test system of data set [3] is Klebsiella pneumoniae (ATCC 27736). The conditions noted are these: ATCC 27736, 24 h. The protocol: as §1, §2
The subject of data set [4] is Pseudomonas aeruginosa (ATCC 27853). The following applies: ATCC 27853, 24 h. The protocol:
as §1, §2

For data set [5], the system named is Staphylococcus aureus (ATCC 25923). The conditions noted are these: ATCC 25923, 24 h. The protocol: as §1, §2
For data set [6], the system named is Staphylococcus epidermidis (ATCC 12228). The following applies: ATCC 12228, 24 h. The protocol: as §1, §2
Data set [7] concerns Bacillus subtilis (ATCC 6633). The following applies: ATCC 6633, 18 h. The method, then:
as §1

In data set [8] the test system is Escherichia coli (ATCC 25922). The conditions noted are these: ATCC 25922, 18 h. The method, then:
as §1

Data set [9] has as its system Klebsiella pneumoniae (ATCC 27736). The following applies: ATCC 27736, 18 h. The protocol:
as §1

Data set [10] has as its system Pseudomonas aeruginosa (ATCC 27853). The following applies: ATCC 27853, 18 h. The method, then:
as §1

Data set [11] concerns Staphylococcus aureus (ATCC 25923). The conditions noted are these: ATCC 25923, 18 h. The protocol: as §1
For data set [12], the system named is Staphylococcus epidermidis (ATCC 12228). The following applies: ATCC 12228, 18 h. The method, then: as §1
The subject of data set [13] is several bacterial strains. The conditions noted are these: for MIC, over all strains tested: 18 h. The protocol:
as §1

The subject of another data set is human erythrocytes. The following applies: red cells of human, 1 h. The protocol:
Human whole blood was obtained from Blood Transfusion Center Faculty of Medicine Khon Kaen University (ethical approval number HE601010). Fresh human erythrocytes were carefully mixed with PBS (1:3) and centrifuged at 1000 × g for 2 min. The supernatant was discarded and the cell pellet was resuspended to 2% w/v in PBS. 100 µL of the resuspended erythrocytes were incubated with the peptide (10 µL, final concentrations ranging from 12.5 to 100 μg/mL, two-fold serial dilution) at 37 °C for 1 h. After the treatment, the plate was centrifuged and the supernatant was taken to determine the optical density at 415 nm using a microplate reader (ALLSHENG, Zhejiang, China). The positive control for this assay was the addition of Triton X-100 (1% v/v), which causes 100% hemolysis. The negative control was cells treated with PBS buffer only. The hemolysis activity was estimated using the equation: %hemolysis=OD415ofsample/OD415ofTritonX-100treatedcontrol×100

The test system of data set [14] is human keratinocyte cells (HaCaT). The following applies: 24 h. The method, then: (§3) Human peripheral blood mononuclear cells (PBMC), African green monkey kidney cells (Vero), human keratinocyte cells (HaCaT) and mouse preadipocytes (3T3-L1) were used to evaluate the cytotoxicity of peptides by the MTT assay. PBMCs were isolated using Ficoll medium (GE Healthcare, Uppsala, Sweden) as described by Jangpromma et al.[28]. The PBMCs were then cultured in RPMI 1640, while Vero, HaCaT and 3T3-L1 cells were cultured in DMEM. All culture mediums were supplemented with 10% heat-inactivated fetal bovine serum (FBS) and 1% antibiotic:antimycotic (Gibco, USA). The cells were cultured at 37 °C with 5% CO2/95% relative humidity. After that, PBMC (2 × 10^6 cells/well), Vero (1 × 10^4 cells/well), HaCaT (1 × 10^4 cells/well) and 3T3-L1 (1 × 10^4 cells/well) were individually seeded into 96-well plate and cultured at 37 °C overnight. Next, two-fold serially diluted peptides (3.13–200 μg/mL) were added to the cell culture. After incubation in 5% (v/v) CO2 incubator for 24 h, the medium culture was removed and MTT solution ([…] final concentration in fresh medium culture) was added to the cells and incubated for 30 min. Thereafter, the medium was removed and DMSO (100 µL) was added to each well to dissolve the formazan crystals. The optical density at 570 nm was determined using a microplate reader (ALLSHENG, Zhejiang, China). The cytotoxicity of IL15.3 against Vero, HaCaT and 3T3-L1 cells in the absence of FBS was also measured by the MTT assay to confirm the peptide is not sequestered by proteins in the serum causing artificially low cytotoxicity against eukaryotic cells.
(§4) Cell viability was determined using the equation: %cellviability=OD570ofsample/OD570ofuntreatedcontrol×100
(§5) GraphPad Prism8 (San Diego, CA, USA) was used to calculate IC50 values using a non-linear regression model.

For data set [15], the system named is human peripheral blood mononuclear cells (PBMC). The following applies: 24 h. The method, then:
as §3, §4, §5

The MBC is the smallest concentration meeting the test's criterion for killing. Broadly, the MIC is the lowest concentration found to suppress growth. Read a low MIC as a more susceptible organism. For IIHNEKVQAHGKKVL [IL15], the MBC in [1], in data set [2], in data set [3], in [4], in data set [5] and in [6] was > 200 µg/mL in each case. In addition, the MIC in data set [7], in data set [8], in data set [9], in data set [10], in [11] and in [12] was > 200 µg/mL each time. Also, the “MIC, over all strains tested” value in data set [13] was > 200 µg/mL. For the same sequence, the “Hemolysis concentration50 (HC50)” value with human erythrocytes is >2000 µg/mL. For the same sequence, the “IC50 HaCaT” value in [14] was >200 µg/mL. In data set [15], the “IC50 PBMC” value was >200 µg/mL.

On to IKHWEKVWKHGKKVL [IL15.1], for which the MBC in data set [1], in data set [2], in data set [3], in [4], in data set [5] and in [6] was > 200 µg/mL in each case. In addition, the MIC in [7], in data set [8], in data set [9], in [10], in data set [11] and in data set [12] was > 200 µg/mL throughout. Besides, the “MIC, over all strains tested” value in [13] is > 200 µg/mL. Further, the “Hemolysis concentration50 (HC50)” value with human erythrocytes was >2000 µg/mL. Also, the “IC50 HaCaT” value in [14] is >200 µg/mL. Moreover, the “IC50 PBMC” value in data set [15] was >200 µg/mL.

With IKHWKKVWKHGKKVL [IL15.2], the MBC in data set [1] was 60 µg/mL; in [2] it was 150 µg/mL; in [3] it was > 200 µg/mL; in data set [4], > 200 µg/mL; in [5] it was > 200 µg/mL; in [6], > 200 µg/mL. For the same sequence, the MIC was 50 µg/mL in [7]; 100 µg/mL in data set [8]; > 200 µg/mL in data set [9]; > 200 µg/mL in data set [10]; > 200 µg/mL in data set [11]; > 200 µg/mL in data set [12]. In the data set on human erythrocytes, the “Hemolysis concentration50 (HC50)” value is >2000 µg/mL. In addition, the “IC50 HaCaT” value in data set [14] is >200 µg/mL. The “IC50 PBMC” value in [15] is >200 µg/mL.

In the case of IKHWKKVWKHWKKKL [IL15.4], the MBC worked out at 10 µg/mL in data set [1]; 6 µg/mL in data set [2]; 50 µg/mL in data set [3]; 14 µg/mL in data set [4]; 25 µg/mL in [5]; 12 µg/mL in data set [6]. In addition, the MIC stood at 6 µg/mL in data set [7]; 4 µg/mL in data set [8]; 14 µg/mL in [9]; 10 µg/mL in data set [10]; 12 µg/mL in data set [11]; 9 µg/mL in [12]. In addition, the figures for the “increase of SI in comparison with IL15.2” value in [13] (towards gram-negative bacteria) and in data set [13] (towards gram-positive bacteria) were “approximately 6 fold” and ~25 fold, respectively. Also, the “Hemolysis concentration50 (HC50)” value with human erythrocytes was >2000 µg/mL. For the same sequence, the “IC50 HaCaT” value in data set [14] is >200 µg/mL. The “IC50 PBMC” value in data set [15] is >200 µg/mL.

Take IRHWRRVWRHWRRRL [IL15.5]: the MBC was determined as 12 µg/mL in [1]; 25 µg/mL in [2]; 100 µg/mL in [3]; 50 µg/mL in [4]; 50 µg/mL in data set [5]; 15 µg/mL in [6]. For the same sequence, the MIC in data set [7] was 8 µg/mL; in data set [8] it was 15 µg/mL; in data set [9], 75 µg/mL; in data set [10], 35 µg/mL; in data set [11], 25 µg/mL; in [12], 12 µg/mL. Further, the “MIC, over all strains tested” value in [13] is 8 to 75 µg/mL. Also, in the data set on human erythrocytes, the “Hemolysis concentration50 (HC50)” value was found to be 896 µg/mL. Further, the “IC50 HaCaT” value in data set [14] is 200 µg/mL. For the same sequence, the “IC50 PBMC” value in data set [15] was 113 µg/mL.

Regarding QAIIHNEKVQAHGKKVL [QL17], the MBC in [1], in data set [2], in data set [3], in data set [4], in data set [5] and in data set [6] was > 200 µg/mL throughout. In addition, the MIC in data set [7], in [8], in [9], in [10], in data set [11] and in [12] was > 200 µg/mL throughout. Moreover, the “MIC, over all strains tested” value in [13] was > 200 µg/mL. The “Hemolysis concentration50 (HC50)” value with human erythrocytes is >2000 µg/mL. In addition, in data set [14], the “IC50 HaCaT” value was >200 µg/mL. The “IC50 PBMC” value in data set [15] was >200 µg/mL.
